Laboratory results taken from PubChem BioAssay AID2060484 (Molecular Pharmacology Branch, DTP, NCI, 2025).
Values joined by “and” are separate entries in the source; they are usually repeats but may differ in a detail not shown here. Identical values can stand only once.

Tested on: SUM149PT spheroids with HUVEC/MSC, viability
Assay: Anticancer human tumor SUM149PT cell line growth inhibition [GQUAD];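 also: spheroids exposed to drugs for seven days before readout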;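 as to viability, T/C: percent viability relative to DMSO vehicle control taken as 100%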
Conditions: for viability, T/C: stronger effect = lower value; active = viability on the fitted dose curve at most 10% of control; inactive = the rest
Description: DNA G-quadruplex Stabilizer Agents in Combinations in Complex Spheroids
A high-throughput screen of multi-cell type tumor spheroids was designed to identify active combinations of DNA G-quadruplex stabilizer agents and targeted small molecules. Complex spheroids include a stromal component modeled by human endothelial cells (HUVEC) and fibroblasts modeled by human mesenchymal stem cells (MSCs). The concentration ranges selected for each drug and investigational agent were based upon clinically achievable concentrations if the clinical Cmax of the agent was known.
Compounds. The drugs and investigational agents: pidnarulex (CX-5461; NSC782164), APTO-253 (NSC789042), BRACO-19 (NSC847499), peposertib (NSC802822), ceralasertib (NSC780249), elimusertib (NSC800525), camonsertib (NSC841442), AZD-1390 (NSC803789), olaparib (NSC753686), talazoparib (NSC767125), ART-558 (NSC835418), sotorasib (NSC818433), MRTX-1133 (NSC836407), SN-38 (NSC673596), topotecan (NSC609699), etoposide (NSC141540), doxorubicin (NSC123127), gemcitabine (NSC613327), 5-fluorouracil (NSC19893), paclitaxel (NSC125973), vemurafenib (NSC761431), panobinostat (NSC761190), R-306465 (JNJ-16241199; NSC773264), adavosertib (NSC754352), TP-3654 (NSC805149), carboplatin (NSC241240), KSQ-4279 (NSC840948), and staurosporine (NSC755774) were obtained from the National Cancer Institute (NCI) Developmental Therapeutics Program Chemical Repository (34). The FDA-approved anticancer drug set is available from the NCI Developmental Therapeutics Program. […] The stock solutions were prepared in dimethyl sulfoxide (DMSO, Sigma-Aldrich, St. Louis, MO, cat. D2650) at 800-fold the tested concentration and stored at -70 degrees C prior to their use. All drugs and investigational agents were tested over a range starting from a high concentration at or near the clinical Cmax and decreasing in half-log increments. If the clinical Cmax for an agent had not been determined, the highest concentration tested was 10 microM.
2.3 Cell Culture. All cells were maintained in an incubator at 37 degrees C and 5% CO2 with 95% humidity. The PDC lines were cultured according to standard operating procedures established by the NCI PDMR. All PDCs were thawed and cultured in Matrigel-coated flasks prepared with a working solution of 1X Ham's F-12 nutrient mix, without supplementation (Invitrogen, cat. 11765054), 100 U/mL penicillin-streptomycin (Invitrogen, cat. 15140122), and 2.5% Matrigel (Corning Inc., cat. 354248) for the first three passages. The 857933-349-R-J2-PDC line was cultured in 6C/Colon 1B media, which includes advanced DMEM/F-12 (Thermo Fisher Scientific, cat. 12634028), 10 mM HEPES (Thermo Fisher Scientific, cat. 15630080), 1X GlutaMAX supplement (Thermo Fisher Scientific, cat. 35050061), 0.1 mg/mL primocin (InvivoGen, cat. ant-pm-2), 10% defined fetal bovine serum, heat inactivated (HyClone Laboratories Inc., cat. SH30070.03HI), 50% L-WRN conditioned media (ATCC, cat. CRL-3276), 1.25 mM N-Acetyl-L-cysteine (Sigma-Aldrich, cat. A9165), 10 mM nicotinamide (Sigma-Aldrich, cat. N0636), 1X B-27 supplement (Thermo Fisher Scientific, cat. 17504044), 1X N-2 supplement (Thermo Fisher Scientific, cat. 17502048), 10 microM Y-27632 dihydrochloride (Tocris Bioscience, cat. 1254), and 50 ng/mL human EGF recombinant protein (Thermo Fisher Scientific, cat. PHG0311). The 485176-168-R4-J1-PDC line was cultured in Panc media, which includes all 6C/Colon 1B media components plus 100 ng/mL human FGF-10 (Thermo Fisher Scientific, cat. 100-26), 500 nM SB-431542 (Selleckchem, cat. S1067), and gastrin (Tocris, cat. 3006).
[…]

[1] = curve of first compound, second compound 0.0316 µM
[2] = curve of first compound, second compound 0.1 µM
[3] = curve of first compound, second compound 0.316 µM
[4] = curve of first compound, second compound 1 µM
[5] = curve of first compound, second compound 3.16 µM
[6] = curve of first compound, second compound 10 µM
[7] = second compound 0.0316 µM, first compound 0.0316 µM
[8] = second compound 0.0316 µM, first compound 0.1 µM
[9] = second compound 0.0316 µM, first compound 0.316 µM
[10] = second compound 0.0316 µM, first compound 1 µM
[11] = second compound 0.0316 µM, first compound 3.16 µM
[12] = second compound 0.0316 µM, first compound 10 µM
[13] = second compound 0.1 µM, first compound 0.0316 µM
[14] = second compound 0.1 µM, first compound 0.1 µM
[15] = second compound 0.1 µM, first compound 0.316 µM
[16] = second compound 0.1 µM, first compound 1 µM
[17] = second compound 0.1 µM, first compound 3.16 µM
[18] = second compound 0.1 µM, first compound 10 µM
[19] = second compound 0.316 µM, first compound 0.0316 µM
[20] = second compound 0.316 µM, first compound 0.1 µM
[21] = second compound 0.316 µM, first compound 0.316 µM
[22] = second compound 0.316 µM, first compound 1 µM
[23] = second compound 0.316 µM, first compound 3.16 µM
[24] = second compound 0.316 µM, first compound 10 µM
[25] = second compound 1 µM, first compound 0.0316 µM
[26] = second compound 1 µM, first compound 0.1 µM
[27] = second compound 1 µM, first compound 0.316 µM
[28] = second compound 1 µM, first compound 1 µM
[29] = second compound 1 µM, first compound 3.16 µM
[30] = second compound 1 µM, first compound 10 µM
[31] = second compound 3.16 µM, first compound 0.0316 µM
[32] = second compound 3.16 µM, first compound 0.1 µM
[33] = second compound 3.16 µM, first compound 0.316 µM
[34] = second compound 3.16 µM, first compound 1 µM
[35] = second compound 3.16 µM, first compound 3.16 µM
[36] = second compound 3.16 µM, first compound 10 µM
[37] = second compound 10 µM, first compound 0.0316 µM
[38] = second compound 10 µM, first compound 0.1 µM
[39] = second compound 10 µM, first compound 0.316 µM
[40] = second compound 10 µM, first compound 1 µM
[41] = second compound 10 µM, first compound 3.16 µM
[42] = second compound 10 µM, first compound 10 µM

C=CC(=O)N1CCN(c2nc(=O)n(-c3c(C)ccnc3C(C)C)c3nc(-c4c(O)cccc4F)c(F)cc23)C(C)C1 (stereo not given)
> 10000 nM: IC50 (curve of compound)
inactive: viability, T/C (compound 0.0316 µM) 96.6% and 99.6% and 101% | viability, T/C (compound 0.1 µM) 94.5% and 96.4% and 104% | viability, T/C (compound 0.316 µM) 114% and 106% and 105% | viability, T/C (compound 1 µM) 111% and 110% (2×) | viability, T/C (compound 3.16 µM) 120% and 113% and 117% | viability, T/C (compound 10 µM) 109% and 101% and 114%

CC(C)(O)C1CCC(Nc2ccc3ncc(-c4cccc(C(F)(F)F)c4)n3n2)CC1 (stereo not given) + CN(C)c1ccc(Nc2c3ccc(NC(=O)CCN4CCCC4)cc3nc3cc(NC(=O)CCN4CCCC4)ccc23)cc1
> 10000 nM: IC50 [1] | IC50 [2]
1250 nM: IC50 [5]
1550 nM: IC50 [4]
789 nM: IC50 [6]
1760 nM: IC50 [3]
inactive: viability, T/C [7] 98.7% | viability, T/C [8] 84.6% | viability, T/C [9] 75% | viability, T/C [10] 61.5% | viability, T/C [11] 53.6% | viability, T/C [12] 54.2% | viability, T/C [13] 102% | viability, T/C [14] 92.8% | viability, T/C [15] 77.8% | viability, T/C [16] 58% | viability, T/C [17] 49.1% | viability, T/C [18] 54.3% | viability, T/C [19] 86.4% | viability, T/C [20] 89.2% | viability, T/C [21] 76.5% | viability, T/C [22] 52.8% | viability, T/C [23] 44.7% | viability, T/C [24] 50% | viability, T/C [25] 89.6% | viability, T/C [26] 82% | viability, T/C [27] 78.2% | viability, T/C [28] 57.3% | viability, T/C [29] 35.9% | viability, T/C [30] 42.2% | viability, T/C [31] 81.6% | viability, T/C [32] 78.6% | viability, T/C [33] 74.7% | viability, T/C [34] 54.1% | viability, T/C [35] 33.8% | viability, T/C [36] 37.6% | viability, T/C [37] 78.2% | viability, T/C [38] 73.1% | viability, T/C [39] 66.7% | viability, T/C [40] 47% | viability, T/C [41] 20.9% | viability, T/C [42] 18.3%

COc1cc(C2c3cc4c(cc3C(OC3OC5COC(C)OC5C(O)C3O)C3COC(=O)C23)OCO4)cc(OC)c1O (stereo not given)
837 nM and 645 nM and 1340 nM: IC50 (curve of compound)
inactive: viability, T/C (compound 0.0316 µM) 99.6% and 98.6% and 97.5% | viability, T/C (compound 0.1 µM) 88.2% and 81.7% (2×) | viability, T/C (compound 0.316 µM) 55.6% and 52.5% and 61.4% | viability, T/C (compound 1 µM) 49.3% and 48.9% and 58.8% | viability, T/C (compound 3.16 µM) 36% and 29.3% and 42.2% | viability, T/C (compound 10 µM) 18.6% and 14.3% and 22%

COc1ncnc(C2CC2)c1-c1ncc2cnn(Cc3ccc(-c4nc(C(F)(F)F)cn4C(C)C)cc3)c2n1
inactive: viability, T/C (compound 0.0316 µM) 97.5% and 104% and 97.6% | viability, T/C (compound 0.1 µM) 74.3% and 85.3% and 87.7% | viability, T/C (compound 0.316 µM) 88.8% and 90.9% and 90.6% | viability, T/C (compound 1 µM) 76% and 81.9% and 80.4% | viability, T/C (compound 3.16 µM) 89.2% and 95.1% and 95.5% | viability, T/C (compound 10 µM) 95.5% and 94.5% and 101%
> 10000 nM: IC50 (curve of compound)

COc1ncnc(C2CC2)c1-c1ncc2cnn(Cc3ccc(-c4nc(C(F)(F)F)cn4C(C)C)cc3)c2n1 + Cc1[nH]c2ccc(F)cc2c1-c1nc2c3cccnc3c3ncccc3c2[nH]1
> 10000 nM: IC50 [1] | IC50 [2] | IC50 [3] | IC50 [4] | IC50 [5] | IC50 [6]
inactive: viability, T/C [7] 106% | viability, T/C [8] 87.2% | viability, T/C [9] 92.7% | viability, T/C [10] 92.4% | viability, T/C [11] 91.6% | viability, T/C [12] 95.4% | viability, T/C [13] 103% | viability, T/C [14] 104% | viability, T/C [15] 87.2% | viability, T/C [16] 90.1% | viability, T/C [17] 91.2% | viability, T/C [18] 94.3% | viability, T/C [19] 97.4% | viability, T/C [20] 97.6% | viability, T/C [21] 68.9% | viability, T/C [22] 93% | viability, T/C [23] 97.8% | viability, T/C [24] 94.6% | viability, T/C [25] 98.1% | viability, T/C [26] 98.1% | viability, T/C [27] 92.3% | viability, T/C [28] 92.2% | viability, T/C [29] 90.1% | viability, T/C [30] 95.3% | viability, T/C [31] 97.4% | viability, T/C [32] 89.6% | viability, T/C [33] 86.1% | viability, T/C [34] 82.3% | viability, T/C [35] 89.4% | viability, T/C [36] 89.2% | viability, T/C [37] 91.8% | viability, T/C [38] 91.4% | viability, T/C [39] 85.4% | viability, T/C [40] 83.7% | viability, T/C [41] 90.8% | viability, T/C [42] 92.5%
